According to ChEMBL document CHEMBL1208770, “Inhibitors of osteoclastogenesis from Lawsonia inermis leaves” (Bioorg Med Chem Lett, 2010):

Tests used:
[1] = Cytotoxicity against mouse BMDM cells at 10 uM after 72 hrs by MTS assay; assay type: cell-based
[2] = Inhibition of RANKL-induced osteoclastogenesis in mouse BMDM assessed as decrease in TRAP-positive cells at 10 uM after 5 days by light microscopy; assay type: functional; conditions: 120 h

In the case of `COc1cc2cc(Oc3ccc4ccc(=O)oc4c3)c(=O)oc2cc1O[C@@H]1O[C@H](CO)[C@@H](O)[C@H](O)[C@H]1O` [DAPHNORIN], the Activity [1] is reported as “Non-toxic” and the inhibition at 10 µM [2] is reported as 13%.

With `O=c1ccc2ccc(O[C@@H]3O[C@H](CO)[C@@H](O)[C@H](O)[C@H]3O)c(O[C@@H]3O[C@H](CO)[C@@H](O)[C@H](O)[C@H]3O)c2o1` [DAPHNESIDE] the Activity [1] was “Non-toxic” and the inhibition at 10 µM [2] was 20%.
